From EP2298778A1, “IMIDAZOTHIAZOLE DERIVATIVE HAVING 4,7-DIAZASPIROÝ2.5¨OCTANE RING STRUCTURE” (Daiichi Sankyo Company, Limited, priority 2008, dated 2009)

Experiment: Metabolic stability test (microsomal metabolism test)
Assay type: in vitro ADME
Settings: pH 7.4; human-derived liver microsomes, test compound remaining after addition of NADP+ and incubation at 37°C for 30 minutes; read-out: metabolic stability of T/C%
Procedure, shortened: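 Test compound was added as a 3 µM solution to human liver microsomes (0.3–1.5 mgP/mL) in pH 7.4 phosphate buffer with G6P, G6P dehydrogenase and MgCl2. This was preincubated 20 min at 37°C, then 3 mM NADP+ solution was added and incubated 30 min at 37°C. T/C (%) is compound remaining after versus before NADP+ addition.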

Row | SMILES | remaining at 0.5 h [%]
1 | CC(C)C1=C(C(=O)N2[C@H](C)CC[C@H]2C(=O)N2CC3(CC3)N(C(=O)C(F)(F)F)C[C@@H]2C)SC2=N[C@@](C)(c3ccc(Cl)nc3)[C@@H](c3ccc(Cl)c(F)c3)N21 [Example 60, (6S)-7-[(5R)-1-{[(5R, 6S)-5-(4-chloro-3-fluorophenyl)-6-(6-chloropyridin-3-yl)-3-isopropyl-6-methyl-5,6-dihydroimidazo[2,1-b][1,3]thiazol-2-yl]carbonyl}-5-methyl-L-prolyl]-6-methyl-4-(trifluoroacetyl)-4,7-diazaspiro[2.5]octane] | ≥ 50
2 | CC[C@H]1CNC2(CC2)CN1C(=O)[C@@H]1CCCN1C(=O)C1=C(C(C)C)N2C(=N[C@@](C)(c3ccc(Cl)nc3)[C@H]2c2ccc(Cl)c(F)c2)S1 [Example 61, (6S)-7-(1-{[(5R,6S)-5-(4-chloro-3-fluorophenyl)-6-(6-chloropyridin-3-yl)-3-isopropyl-6-methyl-5,6-dihydroimidazo[2,1-b][1,3]thiazol-2-yl]carbonyl}-L-prolyl)-6-ethyl-4,7-diazaspiro[2.5]octane] | ≥ 50
3 | CC[C@@H]1CNC2(CC2)CN1C(=O)[C@@H]1CCCN1C(=O)C1=C(C(C)C)N2C(=N[C@@](C)(c3ccc(Cl)nc3)[C@H]2c2ccc(Cl)c(F)c2)S1 [Example 62, (6R)-7-(1-{[(5R,6S)-5-(4-chloro-3-fluorophenyl)-6-(6-chloropyridin-3-yl)-3-isopropyl-6-methyl-5,6-dihydroimidazo[2,1-b][1,3]thiazol-2-yl]carbonyl}-L-prolyl)-6-ethyl-4,7-diazaspiro[2.5]octane] | ≥ 50
4 | CO[C@@H]1C[C@@H](C(=O)N2CC3(CC3)NC[C@@H]2C)N(C(=O)C2=C(C(C)C)N3C(=N[C@@](C)(c4ccc(Cl)nc4)[C@H]3c3ccc(Cl)c(F)c3)S2)C1 [Example 63, (6S)-7-[(4R)-1-{[(5R,6S)-5-(4-chloro-3-fluorophenyl)-6-(6-chloropyridin-3-yl)-3-isopropyl-6-methyl-5,6-dihydroimidazo[2,1-b][1,3]thiazol-2-yl]carbonyl}-4-methoxy-L-prolyl]-6-methyl-4,7-diazaspiro[2.5]octane] | ≥ 50
5 | CC(C)C1=C(C(=O)N2CCC[C@H]2C(=O)N2CC3(CC3)NC[C@H]2C)SC2=N[C@@](C)(c3ccc(Cl)nc3)[C@@H](c3ccc(Cl)c(F)c3)N21 [Example 64, (6R)-7-(1-{[(5R,6S)-5-(4-chloro-3-fluorophenyl)-6-(6-chloropyridin-3-yl)-3-isopropyl-6-methyl-5,6-dihydroimidazo[2,1-b][1,3]thiazol-2-yl]carbonyl}-L-prolyl)-6-methyl-4,7-diazaspiro[2.5]octane] | ≥ 50
6 | CC(C)C1=C(C(=O)N2[C@@H](C)CC[C@H]2C(=O)N2CC3(CC3)NC[C@@H]2C)SC2=N[C@@](C)(c3ccc(Cl)nc3)[C@@H](c3ccc(Cl)c(F)c3)N21 [Example 65, (6S)-7-[(5S)-1-{[(5R,6S)-5-(4-chloro-3-fluorophenyl)-6-(6-chloropyridin-3-yl)-3-isopropyl-6-methyl-5,6-dihydroimidazo[2,1-b][1,3]thiazol-2-yl]carbonyl}-5-methyl-L-prolyl]-6-methyl-4,7-diazaspiro[2.5]octane] | ≥ 50
7 | CC(C)C1=C(C(=O)N2C[C@@](C)(O)C[C@H]2C(=O)N2CC3(CC3)NC[C@@H]2C)SC2=N[C@@](C)(c3ccc(Cl)nc3)[C@@H](c3ccc(Cl)c(F)c3)N21 [Example 68, (3S,5S)-1-{[(5R,6S)-5-(4-chloro-3-fluorophenyl)-6-(6-chloropyridin-3-yl)-3-isopropyl-6-methyl-5,6-dihydroimidazo[2,1-b][1,3]thiazol-2-yl]carbonyl}-3-methyl-5-{[(6S)-6-methyl-4,7-diazaspiro[2.5]oct-7-yl]carbonyl}pyrrolidin-3-ol] | ≥ 50
8 | CC(C)C1=C(C(=O)N2C[C@@H]3C[C@@H]3[C@H]2C(=O)N2CC3(CC3)NC[C@@H]2C)SC2=N[C@@](C)(c3ccc(Cl)nc3)[C@@H](c3ccc(Cl)c(F)c3)N21 [Example 69, (65)-7-{[(1S,25,5R)-3-{[(5R,65)-5-(4-chloro-3-fluorophenyl)-6-(6-chloropyridin-3-yl)-3-isopropyl-6-methyl-5,6-dihydroimidazo[2,1-b][1,3]thiazol-2-yl]carbonyl}-3-azabicyclo[3.1.0]hex-2-yl]carbonyl}-6-methyl-4,7-diazaspiro[2.5]octane] | ≥ 50
9 | CC(C)C1=C(C(=O)N2[C@@H]3C[C@@H]3C[C@H]2C(=O)N2CC3(CC3)NC[C@@H]2C)SC2=N[C@@](C)(c3ccc(Cl)nc3)[C@@H](c3ccc(Cl)c(F)c3)N21 [Example 70, (6S)-7-{[(1R,3S,5R)-2-{[(5R,6S)-5-(4-chloro-3-fluorophenyl)-6-(6-chloropyridin-3-yl)-3-isopropyl-6-methyl-5,6-dihydroimidazo[2,1-b][1,3]thiazol-2-yl]carbonyl}-2-azabicyclo[3.1.0]hex-3-yl]carbonyl}-6-methyl-4,7-diazaspiro[2.5]octane] | ≥ 50

Now from value to molecule:

Row | remaining at 0.5 h [%] | SMILES
10 | ≥ 50 | CC(C)C1=C(C(=O)N2[C@H](C)CC[C@H]2C(=O)N2CCNC3(CC3)C2)SC2=N[C@@](C)(c3ccc(Cl)nc3)[C@@H](c3ccc(Cl)c(O)c3)N21 [Example 71, 2-chloro-5-[(5R,6S)-6-(6-chloropyridin-3-yl)-2-{[(2S,5R)-2-(4,7-diazaspiro[2.5]oct-7-ylcarbonyl)-5-methylpyrrolidin-1-yl]carbonyl}-3-isopropyl-6-methyl-5,6-dihydroimidazo[2,1-b][1,3]thiazol-5-yl]phenol]
11 | ≥ 50 | COc1ccc([C@]2(C)N=C3SC(C(=O)N4[C@H](C)CC[C@H]4C(=O)N4CCNC5(CC5)C4)=C(C(C)C)N3[C@@H]2c2ccc(Cl)c(F)c2)cc1 [Example 72, 7-[(5R)-1-{[(5R,6S)-5-(4-chloro-3-fluorophenyl)-3-isopropyl-6-(4-methoxyphenyl)-6-methyl-5,6-dihydroimidazo[2,1-b][1,3]thiazol-2-yl]carbonyl}-5-methyl-L-prolyl]-4,7-diazaspiro[2.5]octane]
12 | ≥ 50 | CCOc1ccc([C@]2(C)N=C3SC(C(=O)N4[C@H](C)CC[C@H]4C(=O)N4CCNC5(CC5)C4)=C(C(C)C)N3[C@@H]2c2ccc(Cl)c(F)c2)cn1 [Example 73, 7-[(5R)-1-{[(5R,6S)-5-(4-chloro-3-fluorophenyl)-6-(6-ethoxypyridin-3-yl)-3-isopropyl-6-methyl-5,6-dihydroimidazo [2,1-b] [1,3]-thiazol-2-yl]-carbonyl}-5-methyl-L-prolyl]-4,7-diazaspiro[2.5]octane]
13 | ≥ 50 | CC(C)C1=C(C(=O)N2[C@H](C)CC[C@H]2C(=O)N2CCNC3(CC3)C2)SC2=N[C@@](C)(c3ccc(Cl)nc3)[C@@H](c3ccc(C(F)(F)F)c(F)c3)N21 [Example 74, 7-[(5R)-1-({(5R,6S)-6-(6-chloropyridin-3-yl)-5-[3-fluoro-4-(trifluoromethyl)phenyl]-3-isopropyl-6-methyl-5,6-dihydroimidazo[2,1-b][1,3]thiazol-2-yl}carbonyl)-5-methyl-L-prolyl]-4,7-diazaspiro[2.5]octane]
